From ChEMBL document CHEMBL1140492, “Synthesis and inhibitory activity of 4-alkynyl and 4-alkenylquinazolines: identification of new scaffolds for potent EGFR tyrosine kinase inhibitors” (Bioorg Med Chem Lett, 2007)

The compounds below were run against Epidermal growth factor receptor (Homo sapiens, UniProt P00533) (assay: Inhibition of partially purified EGFR tyrosine kinase from human A431 cells).
Chain of Epidermal growth factor receptor (P00533 whole entry): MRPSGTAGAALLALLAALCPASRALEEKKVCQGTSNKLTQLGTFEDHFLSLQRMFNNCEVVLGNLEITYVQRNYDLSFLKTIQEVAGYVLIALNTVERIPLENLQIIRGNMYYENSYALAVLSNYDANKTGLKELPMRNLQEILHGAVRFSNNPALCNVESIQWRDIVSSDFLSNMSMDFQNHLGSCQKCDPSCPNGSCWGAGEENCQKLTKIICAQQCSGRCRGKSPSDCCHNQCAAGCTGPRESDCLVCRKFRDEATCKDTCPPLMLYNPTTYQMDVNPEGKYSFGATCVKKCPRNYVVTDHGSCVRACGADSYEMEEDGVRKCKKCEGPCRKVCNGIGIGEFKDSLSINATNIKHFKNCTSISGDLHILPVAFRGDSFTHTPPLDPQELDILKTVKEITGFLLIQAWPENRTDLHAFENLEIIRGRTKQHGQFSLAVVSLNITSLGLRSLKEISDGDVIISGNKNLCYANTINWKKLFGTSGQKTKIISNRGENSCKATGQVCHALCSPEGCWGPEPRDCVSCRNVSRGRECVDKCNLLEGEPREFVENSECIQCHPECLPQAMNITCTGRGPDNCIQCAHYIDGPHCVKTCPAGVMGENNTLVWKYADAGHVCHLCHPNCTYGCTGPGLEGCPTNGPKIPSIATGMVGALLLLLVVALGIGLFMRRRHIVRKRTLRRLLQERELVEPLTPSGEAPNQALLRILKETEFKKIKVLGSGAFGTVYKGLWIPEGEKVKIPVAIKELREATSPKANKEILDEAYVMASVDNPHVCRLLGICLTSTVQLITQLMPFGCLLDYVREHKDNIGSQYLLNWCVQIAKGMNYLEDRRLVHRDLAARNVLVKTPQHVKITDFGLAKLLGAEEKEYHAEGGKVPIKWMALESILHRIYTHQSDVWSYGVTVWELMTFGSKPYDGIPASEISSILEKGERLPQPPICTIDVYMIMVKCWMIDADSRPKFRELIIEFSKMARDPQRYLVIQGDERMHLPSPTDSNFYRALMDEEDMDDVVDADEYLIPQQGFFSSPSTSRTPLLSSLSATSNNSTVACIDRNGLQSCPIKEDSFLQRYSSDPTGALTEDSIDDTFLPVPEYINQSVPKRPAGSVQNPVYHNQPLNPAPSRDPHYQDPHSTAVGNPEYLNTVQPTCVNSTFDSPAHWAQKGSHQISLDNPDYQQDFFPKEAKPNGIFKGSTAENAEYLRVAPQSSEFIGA

Row | IC50 [nM] | SMILES
1 | 5600 | COc1cc2ncnc(C#Cc3ccccc3)c2cc1OC
2 | 14 | COc1cc2ncnc(C#CCCc3ccccc3)c2cc1OC
3 | 15 | COc1cc2ncnc(C#CCOc3ccccc3)c2cc1OC
4 | 80 | COc1cc2ncnc(C#CC(C)(C)N(C)c3ccccc3)c2cc1OC
5 | 4 | COc1cc2ncnc(/C=C/CCc3ccccc3)c2cc1OC
6 | 26 | COc1cc2ncnc(C#Cc3ccccc3-c3ccccc3)c2cc1OC
7 | 15 | CCOc1cc2ncnc(/C=C/c3ccccc3)c2cc1OCC
8 | 140 | CCOc1cc2ncnc(/C=C/CCCc3ccccc3)c2cc1OCC
9 | 10 | CCOc1cc2ncnc(C#Cc3[nH]ccc3-c3ccccc3)c2cc1OCC
10 | 662 | CCOc1cc2ncnc(C#C[C@](C)(Cc3ccccc3)N3CCC(C(=O)O)CC3)c2cc1OCC
11 | 33 | COc1cc2ncnc(C#C[C@@](C)(Cc3ccccc3)N3CCC(C(=O)O)CC3)c2cc1OC
12 | 3 | CCN(CC)[C@@](C)(C#Cc1ncnc2cc(OC)c(OC)cc12)Cc1ccccc1
13 | 7300 | CCN(CC)[C@@](C)(C#Cc1ncnc2cc(OC)c(OC)cc12)c1ccccc1
14 | 1200 | CCN(CC)[C@@](C)(C#Cc1ncnc2cc(OC)c(OC)cc12)CCc1ccccc1
15 | 200 | CCN(CC)[C@@](C)(C#Cc1ncnc2cc(OC)c(OC)cc12)Cc1ccncc1
16 | 1100 | CCN(CC)[C@@](C)(C#Cc1ncnc2cc(OC)c(OC)cc12)CC1CCCCC1
17 | 130 | CCN(CC)[C@@](C)(CCc1ncnc2cc(OC)c(OC)cc12)Cc1ccccc1
18 | 5 | CCOc1cc2ncnc(/C=C/CCc3ccccc3)c2cc1OCC
19 | 12 | CCOc1cc2ncnc(C#Cc3nccn3-c3ccccc3)c2cc1OCC
20 | 4.2 | CCOc1cc2ncnc(C#C[C@@](C)(Cc3ccccc3)N3CCC(C(=O)O)CC3)c2cc1OCC
21 | 13 | COc1cc2ncnc(C#CC(C)(C)Cc3ccccc3)c2cc1OC
22 | 11.7 | CCOc1cc2ncnc(C#CC(C)(Cc3ccccc3)N3CCC(C(=O)O)CC3)c2cc1OCC (racemic)

Row | SMILES | IC50 [nM]
23 | CCOc1cc2ncnc(C#Cc3c[nH]nc3-c3ccc(F)cc3)c2cc1OCC | 1.8
